Laboratory results from PubChem BioAssay (NCI).
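Interpolation was linear, between the two tested concentrations surrounding the appropriate level; five concentrations were tested over 48 hours in 96-well plates. TGI marks complete inhibition of growth.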

How the values were obtained:
Experiment in all cases: NCI-60 cell line screen, 48 h
NCI-H460 lung = tested on: NCI-H460 lung
SK-MEL-2 melanoma = tested on: SK-MEL-2 melanoma
NCI-H226 lung = tested on: NCI-H226 lung
786-0 renal = tested on: 786-0 renal
EKVX NSCLC = tested on: EKVX NSCLC
HT29 colon = tested on: HT29 colon
CCRF-CEM leukemia = tested on: CCRF-CEM leukemia
UACC-62 melanoma = tested on: UACC-62 melanoma
M14 melanoma = tested on: M14 melanoma
LOX IMVI melanoma = tested on: LOX IMVI melanoma
OVCAR-8 ovarian = tested on: OVCAR-8 ovarian
U251 CNS = tested on: U251 CNS
TK-10 renal = tested on: TK-10 renal
KM12 colon = tested on: KM12 colon
SF-295 CNS = tested on: SF-295 CNS
OVCAR-3 ovarian = tested on: OVCAR-3 ovarian
MCF7 breast = tested on: MCF7 breast
RPMI-8226 leukemia = tested on: RPMI-8226 leukemia
SN12C renal = tested on: SN12C renal
SR leukemia = tested on: SR leukemia
NCI-H522 lung = tested on: NCI-H522 lung
MDA-MB-435 = tested on: MDA-MB-435
MALME-3M melanoma = tested on: MALME-3M melanoma
RXF 393 renal = tested on: RXF 393 renal
UO-31 renal = tested on: UO-31 renal
SNB-19 CNS = tested on: SNB-19 CNS
COLO 205 colon = tested on: COLO 205 colon
HCT-15 colon = tested on: HCT-15 colon
HOP-92 NSCLC = tested on: HOP-92 NSCLC
SK-OV-3 ovarian = tested on: SK-OV-3 ovarian
CAKI-1 renal = tested on: CAKI-1 renal
HCT-116 colon = tested on: HCT-116 colon
UACC-257 melanoma = tested on: UACC-257 melanoma
SF-539 CNS = tested on: SF-539 CNS
HCC-2998 colon = tested on: HCC-2998 colon
HOP-62 NSCLC = tested on: HOP-62 NSCLC
MOLT-4 leukemia = tested on: MOLT-4 leukemia
SW-620 colon = tested on: SW-620 colon
DU-145 prostate = tested on: DU-145 prostate
OVCAR-4 ovarian = tested on: OVCAR-4 ovarian
OVCAR-5 ovarian = tested on: OVCAR-5 ovarian
A549 NSCLC = tested on: A549 NSCLC
K-562 leukemia = tested on: K-562 leukemia
NCI/ADR-RES ovarian = tested on: NCI/ADR-RES ovarian
MDA-N = tested on: MDA-N
ACHN renal = tested on: ACHN renal
IGROV1 ovarian = tested on: IGROV1 ovarian
SF-268 CNS = tested on: SF-268 CNS
SK-MEL-28 melanoma = tested on: SK-MEL-28 melanoma
MDA-MB-231 breast = tested on: MDA-MB-231 breast
HS 578T breast = tested on: HS 578T breast
PC-3 prostate = tested on: PC-3 prostate
HL-60(TB) leukemia = tested on: HL-60(TB) leukemia
SK-MEL-5 melanoma = tested on: SK-MEL-5 melanoma
NCI-H23 lung = tested on: NCI-H23 lung
BT-549 breast = tested on: BT-549 breast

Measured: TGI

CC(CCOc1c2ccoc2cc2oc(=O)ccc12)C1=CC(=O)C(C)(C)O1 (stereo unspecified)
71.3 µM: NCI-H522 lung
> 100 µM: all other assays above
